Laboratory results as given in ChEMBL document CHEMBL1156187, “Discovery of a selective small-molecule melanocortin-4 receptor agonist with efficacy in a pilot study of sexual dysfunction in humans” (J Med Chem, 2010).
Activity calls are given as the source filed them. The rule behind the calls is not given here.

Legend:
Melanocortin receptor 5 [1] = molecular target: T1, Melanocortin receptor 5 (Homo sapiens, UniProt P33032); assay: Agonist activity at human recombinant MC5 receptor expressed in HEK293 cells assessed as cAMP accumulation by beta lactamase reporter gene assay relative to alpha melanocyte-stimulating hormone; format: functional, cell-based
T1 sequence (P33032 whole entry): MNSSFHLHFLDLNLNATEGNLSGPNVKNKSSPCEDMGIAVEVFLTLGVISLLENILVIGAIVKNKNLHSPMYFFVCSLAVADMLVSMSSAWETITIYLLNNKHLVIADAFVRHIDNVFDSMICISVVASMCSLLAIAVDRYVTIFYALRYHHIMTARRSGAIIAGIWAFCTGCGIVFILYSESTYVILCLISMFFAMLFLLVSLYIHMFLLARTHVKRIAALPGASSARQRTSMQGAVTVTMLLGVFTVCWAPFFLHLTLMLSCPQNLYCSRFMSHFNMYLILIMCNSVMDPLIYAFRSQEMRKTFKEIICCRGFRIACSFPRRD

[2] = Binding affinity to sodium channel
[3] = Tmax in dog at 0.67 mg/kg, sublingual; format: ADME, organism-based, Canis lupus familiaris; design: dose 0.67 mg/kg; details: in vivo
[4] = Tmax in dog at 0.5 mg/kg, po; format: ADME, organism-based, Canis lupus familiaris; design: dose 0.5 mg/kg, route oral; details: in vivo
[5] = molecular target: T2, Melanocyte-stimulating hormone receptor (Homo sapiens, UniProt Q01726); assay: Agonist activity at human recombinant MC1 receptor expressed in HEK293 cells assessed as cAMP accumulation by enzyme fragment complementation assay; format: functional, cell-based
Target sequence in this assay (Q01726 whole entry, the tested form may be a part): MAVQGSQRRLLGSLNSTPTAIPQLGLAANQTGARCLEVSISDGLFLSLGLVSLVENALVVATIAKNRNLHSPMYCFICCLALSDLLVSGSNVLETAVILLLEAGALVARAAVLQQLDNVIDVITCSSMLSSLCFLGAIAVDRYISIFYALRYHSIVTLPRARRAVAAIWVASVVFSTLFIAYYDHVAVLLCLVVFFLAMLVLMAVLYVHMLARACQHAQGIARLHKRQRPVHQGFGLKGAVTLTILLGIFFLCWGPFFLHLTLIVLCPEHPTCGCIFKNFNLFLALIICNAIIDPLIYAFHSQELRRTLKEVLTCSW

[6] = (§1) Oral bioavailability in dog at 0.5 mg/kg; format: ADME, organism-based, Canis lupus familiaris; details: in vivo
[7] = Tmax in dog at 2.04 mg/kg, sublingual; format: ADME, organism-based, Canis lupus familiaris; design: dose 2.04 mg/kg; details: in vivo
[8] = Clearance in dog plasma at 0.5 mg/kg, iv; format: ADME, organism-based, Canis lupus familiaris; design: dose 0.5 mg/kg, route intravenous
[9] = Tmax in dog at 0.14 mg/kg, intranasal; format: ADME, organism-based, Canis lupus familiaris; design: dose 0.14 mg/kg; details: in vivo, inhaled or intranasal
[10] = Fraction unbound in rat plasma; format: ADME, cell-free
[11] = Volume of distribution at steady state in dog plasma at 0.5 mg/kg, iv; format: ADME, organism-based, Canis lupus familiaris; design: dose 0.5 mg/kg, route intravenous; details: read-out: Vdss
[12] = Half life in dog at 0.14 mg/kg, intranasal; format: ADME, organism-based, Canis lupus familiaris; design: dose 0.14 mg/kg; details: in vivo, inhaled or intranasal
[13] = Terminal half life in human at 195 mg, po; format: ADME, organism-based; details: in vivo, read-out: beta t1/2 (converted)
Liver microsomes = assay: Intrinsic clearance in rat liver microsome measured per mg of protein; format: ADME
Melanocortin receptor 3 [14] = molecular target: T3, Melanocortin receptor 3 (Homo sapiens, UniProt P41968); assay: Agonist activity at human recombinant MC3 receptor expressed in CHO cells assessed as cAMP accumulation by enzyme fragment complementation assay; format: functional, cell-based
T3 sequence (P41968 whole entry, the tested form may be a part): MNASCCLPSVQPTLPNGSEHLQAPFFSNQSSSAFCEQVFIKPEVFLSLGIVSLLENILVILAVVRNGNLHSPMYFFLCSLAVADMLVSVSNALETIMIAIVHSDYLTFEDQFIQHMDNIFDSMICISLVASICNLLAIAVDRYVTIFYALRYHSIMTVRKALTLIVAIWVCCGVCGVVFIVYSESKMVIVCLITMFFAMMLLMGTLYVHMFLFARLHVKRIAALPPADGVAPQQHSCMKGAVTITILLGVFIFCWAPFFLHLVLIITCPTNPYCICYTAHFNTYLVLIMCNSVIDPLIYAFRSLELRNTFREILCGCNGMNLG

[15] = Bioavailability in dog at 0.14 mg/kg, sublingual; format: ADME, organism-based, Canis lupus familiaris; details: in vivo
Melanocortin receptor 4 [16] = molecular target: T4, Melanocortin receptor 4 (Homo sapiens, UniProt P32245); assay: Displacement of [125I]-MT-II from human recombinant MC4 receptor expressed in CHO cells by scintillation counting
T4 sequence (P32245 whole entry): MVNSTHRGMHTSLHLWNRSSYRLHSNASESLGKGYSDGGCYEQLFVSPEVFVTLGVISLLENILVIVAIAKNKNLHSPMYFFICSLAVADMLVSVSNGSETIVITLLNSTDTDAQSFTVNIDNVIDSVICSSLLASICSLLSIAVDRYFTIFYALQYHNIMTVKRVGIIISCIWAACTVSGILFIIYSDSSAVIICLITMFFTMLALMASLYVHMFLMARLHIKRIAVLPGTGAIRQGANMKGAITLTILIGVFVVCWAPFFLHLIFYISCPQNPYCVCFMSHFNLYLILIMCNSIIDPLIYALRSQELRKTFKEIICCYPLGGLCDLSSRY

[17] = Drug excretion in rat urine assessed as parent compound level at 195 mg; format: ADME; details: read-out: Drug uptake
[18] = AUC (0 to infinity) in dog at 0.14 mg/kg, sublingual; format: ADME, organism-based, Canis lupus familiaris; design: time infinity, route sublingual, dose 0.14 mg/kg; details: plasma
Homo sapiens [19] = organism: Homo sapiens; assay: Toxicity in human assessed as minimum effective dose; format: organism-based; details: in vivo
Homo sapiens [20] = assay: Reversal of erectile dysfunction in human assessed as non-visual sexual stimulation at 200 mg, po after 2 hrs post dose; format: functional, organism-based
[21] = Binding affinity to sigma opioid receptor
[22] = Tmax in dog at 0.14 mg/kg, sublingual; format: ADME, organism-based, Canis lupus familiaris; design: dose 0.14 mg/kg; details: in vivo
Melanocortin receptor 3 [23] = molecular target: T3, Melanocortin receptor 3; assay: Agonist activity at human recombinant MC3 receptor expressed in CHO cells assessed as cAMP accumulation by enzyme fragment complementation assay relative to […]; format: functional, cell-based
[24] = Peak plasma concentration in rat at 195 mg, po; format: ADME, organism-based
[25] = Peak plasma concentration in rat at 195 mg, sublingual; format: ADME, organism-based
[26] = molecular target: T2, Melanocyte-stimulating hormone receptor; assay: Agonist activity at human recombinant MC1 receptor expressed in HEK293 cells assessed as cAMP accumulation by enzyme fragment complementation assay relative to alpha melanocyte-stimulating hormone; format: functional, cell-based
Target sequence in this assay (Q01726 whole entry, looked up, the tested form may be a part): as the sequence (Q01726 whole entry, the tested form may be a part) above

[27] = AUC (0 to infinity) in dog at 2.04 mg/kg, sublingual; format: ADME, organism-based, Canis lupus familiaris; design: time infinity, dose 2.04 mg/kg, route sublingual; details: plasma
Melanocortin receptor 5 [28] = molecular target: T1, Melanocortin receptor 5; assay: Agonist activity at human recombinant MC5 receptor expressed in HEK293 cells assessed as cAMP accumulation by beta lactamase reporter gene assay; format: functional, cell-based
[29] = Cmax in dog at 0.5 mg/kg, po; format: ADME, organism-based, Canis lupus familiaris; design: dose 0.5 mg/kg, route oral; details: in vivo
[30] = Bioavailability in dog at 0.14 mg/kg, intranasal; format: ADME, organism-based, Canis lupus familiaris; details: in vivo, inhaled or intranasal
[31] = Half life in dog at 0.14 mg/kg, sublingual; format: ADME, organism-based, Canis lupus familiaris; design: dose 0.14 mg/kg; details: in vivo
[32] = Drug excretion in iv dosed rat bile; format: ADME, organism-based; details: read-out: Drug uptake
[33] = Intrinsic clearance in human liver microsome measured per mg of protein; format: ADME; details: liver microsomes
[34] = Association constant, pKa of the compound; format: physicochemical
[35] = Cmax in dog at 2.04 mg/kg, sublingual; format: ADME, organism-based, Canis lupus familiaris; design: dose 2.04 mg/kg, route sublingual; details: in vivo
[36] = Fraction unbound in dog plasma; format: ADME, cell-free, Canis lupus familiaris
Homo sapiens [37] = assay: Reversal of erectile dysfunction in human assessed as visual sexual stimulation at 200 mg, po dosed twice with the interval of 7 days measuerd after 2 hrs post-dose on day 7; format: functional, organism-based
[38] = Cmax in dog at 0.14 mg/kg, intranasal; format: ADME, organism-based, Canis lupus familiaris; design: route nasal, dose 0.14 mg/kg; details: in vivo, inhaled or intranasal
[39] = AUC (0 to infinity) in dog at 0.67 mg/kg, sublingual; format: ADME, organism-based, Canis lupus familiaris; design: route sublingual, dose 0.67 mg/kg, time infinity; details: plasma
[40] = Apparent Permeability from apical to basolateral side of MDCK2 cells over expressing MDR1; format: ADME, cell-based, Canis lupus familiaris; details: dog, MDCK-MDR1; read-out: permeability
[41] = Apparent Permeability from basolateral to apical side of MDCK2 cells over expressing MDR1; format: ADME, cell-based, Canis lupus familiaris; details: dog, MDCK-MDR1; read-out: permeability
[42] = AUC (0 to infinity) in dog at 0.14 mg/kg, intranasal; format: ADME, organism-based, Canis lupus familiaris; design: route nasal, time infinity, dose 0.14 mg/kg; details: plasma, inhaled or intranasal
[43] = Drug excretion in iv dosed rat urine; format: ADME, organism-based; details: read-out: Drug uptake
[44] = Volume of distribution at steady state in rat at 1 mg/kg, iv; format: ADME, organism-based; design: dose 1 mg/kg, route intravenous; details: in vivo, read-out: Vdss
[45] = Bioavailability in dog at 0.67 mg/kg, sublingual; format: ADME, organism-based, Canis lupus familiaris; details: in vivo
[46] = Lipophilicity, log D at pH 7.4; format: physicochemical; details: buffer
[47] = Oral bioavailability in rat at 1 mg/kg; format: ADME, organism-based; details: in vivo
Homo sapiens [48] = assay: Reversal of erectile dysfunction in human assessed as visual sexual stimulation at 200 mg, po after 2 hrs post dose; format: functional, organism-based
[49] = Clearance in rat at 1 mg/kg, iv; format: ADME, organism-based; design: dose 1 mg/kg, route intravenous; details: in vivo
[50] = Half life in dog at 0.5 mg/kg, po; format: ADME, organism-based, Canis lupus familiaris; design: dose 0.5 mg/kg, route oral; details: in vivo
Homo sapiens [51] = assay: Reversal of erectile dysfunction in human assessed as non-visual sexual stimulation at 200 mg, po dosed twice with the interval of 7 days after 2 hrs post dose; format: functional, organism-based
[52] = Half life in dog at 2.04 mg/kg, sublingual; format: ADME, organism-based, Canis lupus familiaris; design: dose 2.04 mg/kg; details: in vivo
[53] = Intrinsic clearance in dog liver microsome measured per mg of protein; format: ADME, Canis lupus familiaris; details: microsomes
[54] = AUC (0 to infinity) in dog at 0.5 mg/kg, po; format: ADME, organism-based, Canis lupus familiaris; design: time infinity, dose 0.5 mg/kg, route oral; details: plasma
[55] = as §1; format: ADME, organism-based, Canis lupus familiaris; details: in vivo; remark: listed apart in the source
[56] = Half life in rat at 1 mg/kg, iv; format: ADME, organism-based; design: dose 1 mg/kg, route intravenous; details: in vivo
[57] = Half life in dog at 0.5 mg/kg, iv; format: ADME, organism-based, Canis lupus familiaris; design: dose 0.5 mg/kg, route intravenous; details: in vivo
[58] = Bioavailability in dog at 2.04 mg/kg, sublingual; format: ADME, organism-based, Canis lupus familiaris; details: in vivo
[59] = Half life in dog at 0.67 mg/kg, sublingual; format: ADME, organism-based, Canis lupus familiaris; design: dose 0.67 mg/kg; details: in vivo
Melanocortin receptor 4 [60] = molecular target: T4, Melanocortin receptor 4; assay: Agonist activity at human recombinant MC4 receptor expressed in CHO cells by cAMP responsive beta lactamase reporter gene assay; format: functional, cell-based
[61] = Cmax in dog at 0.67 mg/kg, sublingual; format: ADME, organism-based, Canis lupus familiaris; design: dose 0.67 mg/kg, route sublingual; details: in vivo
[62] = Cmax in dog at 0.14 mg/kg, sublingual; format: ADME, organism-based, Canis lupus familiaris; design: route sublingual, dose 0.14 mg/kg; details: in vivo

## C[C@@H]1CN(C(=O)[C@@H]2CN(C(C)(C)C)C[C@H]2c2ccc(F)cc2F)C[C@H](C)[C@@]1(O)c1ccccc1.Cl
Melanocortin receptor 5 [1]
  Emax: 100%
[2]
  Ki: 690 nM
[3]
  Tmax: 0.3 h
[4]
  Tmax: 1 h
[5]
  EC50: 1020 nM
[6]
  bioavailability: 1%
[7]
  Tmax: 0.3 h
[8]
  clearance: 46 mL/min/kg
[9]
  Tmax: 1.6 h
[10]
  fraction unbound: 0.07
[11]
  Vd: 17 L/kg
[12]
  half-life: 3.3 h
[13]
  half-life: 12 h
Liver microsomes
  clearance: 60 µL/min/mg
Melanocortin receptor 3 [14]
  EC50: 1160 nM
[15]
  bioavailability: 35%
Melanocortin receptor 4 [16]
  Ki: 27 nM
[17]
  dose excreted: < 2.5%
[18]
  AUC(0-inf): 17 ng·h/mL
Homo sapiens [19]
  Activity: Toxic
Homo sapiens [20]
  Activity: Active
[21]
  Ki: 330 nM
[22]
  Tmax: 0.7 h
Melanocortin receptor 3 [23]
  Emax: 99%
[24]
  Cmax: 30 ng/mL
[25]
  Cmax: 31 ng/mL
[26]
  Emax: 103%
[27]
  AUC(0-inf): 146 ng·h/mL
Melanocortin receptor 5 [28]
  EC50: 1980 nM
[29]
  Cmax: 0.9 ng/mL
[30]
  bioavailability: 24%
[31]
  half-life: 3.7 h
[32]
  dose excreted: < 1%
[33]
  microsomal CLint: 45 µL/min/mg
[34]
  pKa: 8.95
[35]
  Cmax: 41 ng/mL
[36]
  fraction unbound: 0.15
Homo sapiens [37]
  Activity: Active
[38]
  Cmax: 2.6 ng/mL
[39]
  AUC(0-inf): 64 ng·h/mL
[40]
  Papp A→B: 41 ×10⁻⁶ cm/s
[41]
  Papp B→A: 18 ×10⁻⁶ cm/s
[42]
  AUC(0-inf): 12 ng·h/mL
[43]
  dose excreted: < 3%
[44]
  Vd: 19 L/kg
[45]
  bioavailability: 26%
[46]
  logD: 2.8
[47]
  bioavailability: 20%
Homo sapiens [48]
  Activity: Active
[49]
  clearance: 89 mL/min/kg
[50]
  half-life: 1.9 h
Homo sapiens [51]
  Activity: Active
[52]
  half-life: 4 h
[53]
  clearance: 242 µL/min/mg
[54]
  AUC(0-inf): 1.8 ng·h/mL
[55]
  bioavailability: 1%
[56]
  half-life: 2.4 h
[57]
  half-life: 4.2 h
[58]
  bioavailability: 20%
[59]
  half-life: 3.6 h
Melanocortin receptor 4 [60]
  EC50: 12 nM
[61]
  Cmax: 15 ng/mL
[62]
  Cmax: 2.6 ng/mL
